Experimental findings from patent publication US20150017717A1, “CULTURE MEDIUM FOR EUKARYOTIC CELLS” (Friesland Brands B.V., priority 2012, published 2015) are described below.

The test system of experiment [1] is IgG expressing CHO cell line (CHO-2: ATCC CRL 11397, producing IgG4). The experiment can be described thus: Specific IgG production of CHO cells in supplemented chemically defined medium (sandwich ELISA / AUC). It counts as cell-based, Chinese hamster. The following applies: ratio of cumulative IgG production (mg/ml) and AUC at day 11. The protocol:
(§1) The cell culture assay was carried out in commercially available IS CHO-CD medium (Irvine Scientific, Cat. No. 91119). To this media, L-Glutamine (2 mM), pluronic acid, hypoxanthine (100 μM) and thymidine (15 μM) were added. Penicillin and streptomycin were added to prevent any bacterial growth during the growth assay. The media was supplemented with methyl-L-3-phenyl lactate or mucic acid, both purchased from Sigma Aldrich, Germany, in varying concentrations (1×10^−3 to 1×10^−1% (w/v), see Table 2). The supplemented medium was mixed with a vortex mixture, filtered using a 0.22 μm filter and subsequently used in a growth assay.
(§2) An IgG expressing CHO cell line was used (CHO-2: ATCC CRL 11397, producing IgG4). The cell lines were grown in the adherent conditions for a few passages and once confluent, they were transferred to animal-free conditions in the supplemented media described in Example 2.
(§3) To measure growth and production curves, Chinese hamster ovary (CHO) cells were grown in suspension culture in baffled flasks. 20×10^6 cells were transferred in 25 ml media to the baffled flasks. Chemically defined media with and without added alpha-hydroxy acid derivatives were tested. No fresh media was added during the growth assay. Cells were counted using the CEDEX HiRes cell counter (Innovatis, Germany). The cell counts were used to calculate the area under the growth curve and represented as dimensionless area under curve (AUC) values as described in detail in Ling, C. X, Huang, J. and Zhang, H. (2003), International joint conferences on artificial intelligence, pp. 329-341. The supernatant samples were taken every alternate days for the IgG production measurements. IgG production was measured using sandwich ELISA method. The specific IgG production was calculated by taking the ratio of cumulative IgG production (in mg/ml) and AUC measured at day 11 of the growth assay. The cells were visually inspected using a phase contrast microscope (Zeiss Axiovert 25, 400× magnification). […] Only single cells were observed and no aggregation of cells was seen. The cell shape was also positively affected. […] This was in contrast with the observation that a lot of cell aggregates were present in CHO cell cultures grown in chemically defined medium without alpha-hydroxy acid derivatives.

Experiment [2] shares this test system. The experiment can be described thus: Cell growth of CHO cells in suspension culture (area under growth curve, CEDEX cell counts). The following applies: dimensionless AUC. In kind it is cell-based, Chinese hamster. As for the experimental part:
as §1, §2, §3

Experiment [3] has as its system cell culture (antibody production). The experiment can be described thus: Linear regression of antibody production in cell culture assays against relative concentration of components in plant protein hydrolysates. The following applies: linear regression over plant protein hydrolysates, MS Excel SLOPE function. In kind it is cell-based. As for the experimental part:
Commercial plant protein hydrolysates like SE50MAF-UF, WGE80M-UF, CNE80M-UF, PCE80B obtained from FrieslandCampina Domo, USA were analysed by Liquid chromatography/Mass Spectrometry (LC/MS, LC/MS2) using a Waters Acquity UPLC and a Thermo-Finnigan LTQ mass spectrometer, which consists of an electrospray ionization (ESI) source and linear ion-trap (LIT) mass analyzer. The sample extract was split into two aliquots, dried, then reconstituted in acidic or basic LC-compatible solvents. One aliquot was analyzed using acidic positive ion optimized conditions and the other using basic negative ion optimized conditions in two independent injections using separate dedicated columns. Extracts reconstituted in acidic conditions were gradient eluted using water and methanol both containing 0.1% formic acid, while the basic extracts, which also use water/methanol, contain 6.5 mM ammonium bicarbonate. The MS analysis alternated between MS and data-dependent MS2 scans using dynamic exclusion. Biochemicals were identified by comparison to metabolomic library entries of purified standards or recurrent unknown entities. The combination of chromato-graphic properties and mass spectra gives an indication of a match to the specific compound or an isobaric entity. Thus, an overview of the biochemical components and their relative concentration present in plant protein hydrolysates was generated. Furthermore, all the hydrolysates were tested in the cell culture assays for cell growth and antibody production. […] Using the SLOPE function of Microsoft Excel 2003, the correlation between antibody production and relative concentration of the components was calculated, the results of which are presented in Table 1 below. The higher the positive slope, the higher the importance of a biochemical component in the cell culture. p-values, also calculated using MS Excel's correlation regression function, represent the significance of the values, with the lower the p-value (all between 0 and 1), the more significant the measured value.

As to `COC(=O)[C@@H](O)Cc1ccccc1` [Methyl-L-3-phenyl lactate, methyl-L-3-phenyl lactate], the “Specific IgG production after 11 days” value in experiment [1] (1 × 10^−1 % w/v added) is 77.80. The “Cell growth (area under curve) after 14 days” value in experiment [2] (1 × 10^−1 % w/v added) is recorded as 46.70.
In the case of `O=C(O)[C@@H](O)[C@H](O)[C@H](O)[C@@H](O)C(=O)O` [Mucic acid, mucic acid], the “SLOPE (correlation of antibody production and relative concentration of the component)” value in experiment [3] turned out to be 2108.11. For the same compound, the “Specific IgG production after 11 days” value amounted to 84.61 in experiment [1] (1 × 10^−1 % w/v added), 90.27 in experiment [1] (1 × 10^−2 % w/v added) and 90.85 in experiment [1] (1 × 10^−3 % w/v added). The “Cell growth (area under curve) after 14 days” value in experiment [2] (1 × 10^−1 % w/v added) was determined as 48.29; in experiment [2] (1 × 10^−2 % w/v added), 49.64; in experiment [2] (1 × 10^−3 % w/v added), 49.88.
As for `CC(C)CC(O)C(=O)O` (stereo not drawn) [alpha-hydroxyisocaproic acid], the “SLOPE (correlation of antibody production and relative concentration of the component)” value in experiment [3] was found to be 1654.23.
As to `CC(C)C(O)C(=O)O` (stereo not drawn) [alpha-hydroxyisovaleric acid], in experiment [3], the “SLOPE (correlation of antibody production and relative concentration of the component)” value came out at 2830.96.
